Experimental data reported in patent US20060069132A1, “Azolecarboxamide herbicides” (priority 2004, published 2006).
Where two headings read alike, the source gives them in different places.

What was measured:
morningglory = assay: Test B pre-/postemergence herbicide test; format: in vivo, Ipomoea coccinea; details: Ipomoea, 336 h, visual rating; for pest or weed control at 500 g/ha: 500 g ai/ha
Summary of the method: (§1)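 Species tested were Echinochloa crus-galli, Ipomoea coccinea, Xanthium strumarium and Oryza sativa, treated both before emergence and at the 1- to 4-leaf stage; rice and barnyardgrass were also tested under flooding at 2 leaves. Greenhouse incubation lasted 13–15 days before visual 0–100 scoring.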

rice = assay: Test B flooded paddy test; format: in vivo, Oryza sativa; details: Oryza sativa, 336 h, 1000 g ai/ha, visual rating, scale 0 to 100 (0 no effect, 100 complete control), 13 to 15 days, read-out: Rice plant response rating
Summary of the method: (§2)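 Visual ratings, 0 (no effect) to 100 (complete control), made versus controls after 13–15 d greenhouse. Paddy plants treated at 2-leaf stage; postemergence plants at 1- to 4-leaf stage, 2–18 cm tall.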

wheat = assay: Test B postemergence herbicide test; format: in vivo, Triticum aestivum; details: Triticum aestivum, post-emergence, 336 h, postemergence, visual rating, scale 0 (no effect) to 100 (complete control), read-out: Wheat plant response rating
Summary of the method: as §2

large crabgrass = assay: Test B pre-/postemergence herbicide test; format: in vivo, Digitaria sanguinalis; details: Digitaria sanguinalis; for pest or weed control at 125 g/ha: 125 g ai/ha; for pest or weed control at 500 g/ha: 500 g ai/ha
Summary of the method: (§3)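 Seeds were planted and treated preemergence with compounds formulated in a non-phytotoxic solvent mixture containing surfactant, while plants at the 1- to 4-leaf stage (2 to 18 cm) received postemergence sprays. Flooded paddy plants were grown to the 2-leaf stage. After 13 to 15 days in a greenhouse, injury was visually rated 0–100 against untreated controls.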

corn = assay: Test B pre-/postemergence herbicide test; format: in vivo, Zea mays; details: Zea mays; for plant injury at 125 g/ha: 125 g ai/ha
Summary of the method: as §3

Surinam grass = assay: Test B pre-/postemergence herbicide test; format: in vivo, Urochloa decumbens; details: Urochloa decumbens; for pest or weed control at 125 g/ha: 125 g ai/ha; for pest or weed control at 500 g/ha: 500 g ai/ha
Summary of the method: as §3

pigweed = assay: Test B pre-/postemergence herbicide test; format: in vivo, Amaranthus retroflexus; details: Amaranthus retroflexus, 336 h; for pest or weed control at 125 g/ha: 125 g ai/ha; for pest or weed control at 500 g/ha: 500 g ai/ha
Summary of the method: as §3

ducksalad = assay: Test B flooded paddy test; format: in vivo, Heteranthera limosa; details: Heteranthera limosa, 336 h, 1000 g ai/ha, visual rating, scale 0 to 100 (0 no effect, 100 complete control), 13 to 15 days, read-out: Ducksalad plant response rating
Summary of the method: (§4)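 Plants grow to 1- to 4-leaf stage (2–18 cm) for postemergence spraying, or to 2-leaf stage for the paddy test. Formulated compound is applied. Greenhouse holding lasts 13–15 days. Response is scored visually relative to controls, 0 no effect to 100 complete control; a dash means no result.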

barnyardgrass [1] = assay: Test B pre-/postemergence herbicide test; format: in vivo, Echinochloa crus-galli; details: Echinochloa crus-galli; for pest or weed control at 125 g/ha: 125 g ai/ha; for pest or weed control at 500 g/ha: 500 g ai/ha
Summary of the method: as §1

lambsquarters = assay: Test B pre-/postemergence herbicide test; format: in vivo, Chenopodium album; details: Chenopodium album, 336 h; for pest or weed control at 125 g/ha: 125 g ai/ha; for pest or weed control at 500 g/ha: 500 g ai/ha
Summary of the method: as §3

wild oat = assay: Test B postemergence herbicide test; format: in vivo, Avena fatua; details: Avena fatua, post-emergence, 336 h, postemergence, visual rating, scale 0 (no effect) to 100 (complete control), read-out: Oat, Wild plant response rating
Summary of the method: as §2

barnyardgrass [2] = assay: Test B flooded paddy test; format: in vivo, Echinochloa crus-galli; details: Echinochloa crus-galli, 336 h, 1000 g ai/ha, visual rating, scale 0 to 100 (0 no effect, 100 complete control), 13 to 15 days, read-out: Barnyardgrass plant response rating
Summary of the method: as §4

velvetleaf = assay: Test B pre-/postemergence herbicide test; format: in vivo, Abutilon theophrasti; details: Abutilon theophrasti, 336 h; for pest or weed control at 125 g/ha: 125 g ai/ha; for pest or weed control at 500 g/ha: 500 g ai/ha
Summary of the method: as §3

giant foxtail = assay: Test B pre-/postemergence herbicide test; format: in vivo, Setaria faberi; details: Setaria faberi, 336 h; for pest or weed control at 125 g/ha: 125 g ai/ha; for pest or weed control at 500 g/ha: 500 g ai/ha
Summary of the method: as §3

cocklebur = assay: Test B pre-/postemergence herbicide test; format: in vivo, Xanthium strumarium; details: Xanthium strumarium; for pest or weed control at 125 g/ha: 125 g ai/ha; for pest or weed control at 500 g/ha: 500 g ai/ha
Summary of the method: as §1

[3] = post-emergence, postemergence, visual rating, scale 0 (no effect) to 100 (complete control), read-out: Crabgrass, Large plant response rating
[4] = post-emergence, postemergence, visual rating, scale 0 (no effect) to 100 (complete control), read-out: Surinam Grass plant response rating
[5] = post-emergence, postemergence, visual rating, scale 0 (no effect) to 100 (complete control), read-out: Pigweed plant response rating
[6] = post-emergence, postemergence, visual rating, scale 0 (no effect) to 100 (complete control), read-out: Barnyardgrass plant response rating
[7] = post-emergence, postemergence, visual rating, scale 0 (no effect) to 100 (complete control), read-out: Lambsquarters plant response rating
[8] = post-emergence, postemergence, visual rating, scale 0 (no effect) to 100 (complete control), read-out: Velvetleaf plant response rating
[9] = post-emergence, postemergence, visual rating, scale 0 (no effect) to 100 (complete control), read-out: Foxtail, Giant plant response rating
[10] = post-emergence, postemergence, visual rating, scale 0 (no effect) to 100 (complete control), read-out: Cocklebur plant response rating

SMILES: CCc1nn(C(C)(C)C)cc1C(=O)Nc1cc(C(=O)N(C)C)ccc1F [Compound 222, N-[5-[(dimethylamino)carbonyl]-2-fluorophenyl]-1-(1,1-dimethylethyl)-3-ethyl-1H-pyrazole-4-carboxamide]
- pest or weed control at 125 g/ha (morningglory; post-emergence, postemergence, 125 g ai/ha, scale 0 (no effect) to 100 (complete control), read-out: Morningglory plant response rating): 40%
- pest or weed control at 500 g/ha (morningglory; post-emergence, postemergence, scale 0 (no effect) to 100 (complete control), read-out: Morningglory plant response rating): 80%
- pest or weed control at 500 g/ha (morningglory; pre-emergence, 0 = no effect, 100 = complete control, read-out: Plant response rating, Morningglory): 100%
- plant injury at 1000 g/ha (rice): 90%
- plant injury at 125 g/ha (wheat; 125 g ai/ha): 0%
- plant injury at 500 g/ha (wheat; 500 g ai/ha): 20%
- pest or weed control at 125 g/ha (large crabgrass; [3]): 10%
- pest or weed control at 500 g/ha (large crabgrass; [3]): 20%
- pest or weed control at 125 g/ha (large crabgrass; pre-emergence, 0 = no effect, 100 = complete control, read-out: Crabgrass, Large plant response rating (0 to 100 scale)): 90%
- pest or weed control at 500 g/ha (large crabgrass; pre-emergence, visual rating, 0 = no effect, 100 = complete control, read-out: Plant response rating, Crabgrass, Large): 100%
- plant injury at 125 g/ha (corn; post-emergence, postemergence, visual rating, scale 0 (no effect) to 100 (complete control), read-out: Corn plant response rating): 0%
- plant injury at 500 g/ha (corn; post-emergence, postemergence, 500 g ai/ha, visual rating, scale 0 (no effect) to 100 (complete control), read-out: Corn plant response rating): 20%
- plant injury at 125 g/ha (corn; pre-emergence, 0 = no effect, 100 = complete control, read-out: Corn plant response rating (0 to 100 scale)): 60%
- Corn plant response rating (crop injury, 0 = no effect, 100 = complete kill) at 500 g/ha (corn; pre-emergence, 500 g ai/ha, visual rating, 0 = no effect, 100 = complete control): 90%
- pest or weed control at 125 g/ha (Surinam grass; [4]): 10%
- pest or weed control at 500 g/ha (Surinam grass; [4]): 30%
- pest or weed control at 125 g/ha (Surinam grass; pre-emergence, 0 = no effect, 100 = complete control, read-out: Surinam Grass plant response rating (0 to 100 scale)): 90%
- pest or weed control at 500 g/ha (Surinam grass; pre-emergence, visual rating, 0 = no effect, 100 = complete control, read-out: Plant response rating, Surinam Grass): 100%
- pest or weed control at 125 g/ha (pigweed; [5]): 40%
- pest or weed control at 500 g/ha (pigweed; [5]): 60%
- pest or weed control at 125 g/ha (pigweed; pre-emergence, 0 = no effect, 100 = complete control, read-out: Pigweed plant response rating (0 to 100 scale)): 90%
- pest or weed control at 500 g/ha (pigweed; pre-emergence, visual rating, 0 = no effect, 100 = complete control, read-out: Plant response rating, Pigweed): 100%
- pest or weed control at 1000 g/ha (ducksalad): 80%
- pest or weed control at 125 g/ha (barnyardgrass [1]; [6]): 10%
- pest or weed control at 500 g/ha (barnyardgrass [1]; [6]): 20%
- pest or weed control at 125 g/ha (barnyardgrass [1]; pre-emergence, 0 = no effect, 100 = complete control, read-out: Barnyardgrass plant response rating (0 to 100 scale)): 90%
- pest or weed control at 500 g/ha (barnyardgrass [1]; pre-emergence, visual rating, 0 = no effect, 100 = complete control, read-out: Plant response rating, Barnyardgrass): 100%
- pest or weed control at 125 g/ha (lambsquarters; [7]): 50%
- pest or weed control at 500 g/ha (lambsquarters; [7]): 70%
- pest or weed control at 125 g/ha (lambsquarters; pre-emergence, 0 = no effect, 100 = complete control, read-out: Lambsquarters plant response rating (0 to 100 scale)): 100%
- pest or weed control at 500 g/ha (lambsquarters; pre-emergence, visual rating, 0 = no effect, 100 = complete control, read-out: Plant response rating, Lambsquarters): 100%
- pest or weed control at 125 g/ha (wild oat; 125 g ai/ha): 0%
- pest or weed control at 500 g/ha (wild oat; 500 g ai/ha): 20%
- pest or weed control at 1000 g/ha (barnyardgrass [2]): 90%
- pest or weed control at 125 g/ha (velvetleaf; [8]): 50%
- pest or weed control at 500 g/ha (velvetleaf; [8]): 60%
- pest or weed control at 125 g/ha (velvetleaf; pre-emergence, 0 = no effect, 100 = complete control, read-out: Velvetleaf plant response rating (0 to 100 scale)): 100%
- pest or weed control at 500 g/ha (velvetleaf; pre-emergence, visual rating, 0 = no effect, 100 = complete control, read-out: Plant response rating, Velvetleaf): 100%
- pest or weed control at 125 g/ha (giant foxtail; [9]): 10%
- pest or weed control at 500 g/ha (giant foxtail; [9]): 30%
- pest or weed control at 125 g/ha (giant foxtail; pre-emergence, 0 = no effect, 100 = complete control, read-out: Foxtail, Giant plant response rating (0 to 100 scale)): 60%
- pest or weed control at 500 g/ha (giant foxtail; pre-emergence, visual rating, 0 = no effect, 100 = complete control, read-out: Plant response rating, Foxtail, Giant): 90%
- pest or weed control at 125 g/ha (cocklebur; [10]): 20%
- pest or weed control at 500 g/ha (cocklebur; [10]): 60%
- pest or weed control at 125 g/ha (cocklebur; pre-emergence, 0 = no effect, 100 = complete control, read-out: Cocklebur plant response rating (0 to 100 scale)): 30%
- pest or weed control at 500 g/ha (cocklebur; pre-emergence, visual rating, 0 = no effect, 100 = complete control, read-out: Plant response rating, Cocklebur): 80%
